Key:
MiaPaCa-2 cells [1] = test: Cell viability assay (SRB); format: cell-based; conditions: Homo sapiens, MIA PaCa-2, MiaPaCa-2, 72 h
Experimental: Cell viability assay. MiaPaCa-2 cells (2 × 10^3/well) were plated in 96−well plates and left to adhere overnight. After 24 h the cells were treated with the inhibitors. Viability was determined after 72 h. The culture plates were fixed with cold 3% trichloroacetic acid at 4 °C for 30 min, washed with cold water and dried overnight. Finally, the plates were stained with 0.4% sulforodhamine B (SRB) in 1% acetic acid, washed four times with 1% acetic acid to remove unbound dye, dried overnight and then the stain was extracted with 10 mM Tris Base and the absorbance was read at 560 nm.
Then, the new compounds were tested in vitro for their anti-proliferative effect, using the human pancreatic cancer cell line MiaPaca-2 in the cytotoxicity assays (Table 1).

MiaPaCa-2 cells [2] = test: Measurement of intracellular NAD+ levels (cycling enzymatic assay); format: cell-based, human; conditions: 24 h, 100 μM of inhibitor, SD < 20%
recombinant human NAMPT = molecular target: T1, recombinant human NAMPT (Homo sapiens, UniProt P43490); test: NAMPT inhibition (fluorometric NMN detection); format: biochemical; conditions: NI = No inhibition at concentration < 1 mM, SD < 20%
T1 construct: purchased Abcam ab198090
T1 sequence (P43490 whole entry): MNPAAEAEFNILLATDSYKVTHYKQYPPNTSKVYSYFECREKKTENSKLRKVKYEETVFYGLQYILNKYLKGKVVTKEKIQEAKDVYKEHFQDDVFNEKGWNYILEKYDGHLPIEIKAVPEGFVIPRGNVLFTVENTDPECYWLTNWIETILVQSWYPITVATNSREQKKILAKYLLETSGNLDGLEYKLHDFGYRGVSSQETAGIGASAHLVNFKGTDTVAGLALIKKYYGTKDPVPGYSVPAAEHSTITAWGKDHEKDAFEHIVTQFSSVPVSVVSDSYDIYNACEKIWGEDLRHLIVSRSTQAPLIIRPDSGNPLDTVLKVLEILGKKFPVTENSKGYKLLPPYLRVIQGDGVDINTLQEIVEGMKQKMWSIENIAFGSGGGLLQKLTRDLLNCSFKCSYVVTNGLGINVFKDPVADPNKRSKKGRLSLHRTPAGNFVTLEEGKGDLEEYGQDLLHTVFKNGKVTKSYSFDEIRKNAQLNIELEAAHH

MiaPaCa-2 cells [3] = test: Measurement of intracellular NAD+ levels (cycling enzymatic assay); format: cell-based, human; parameters: dose or concentration left out as unconfirmed; conditions: after 24 h
Experimental: Measurement of intracellular NAD^+ levels. MiaPaCa-2 cells were plated at a density of 6.5 × 10^4 cells/well in 12−well plates. After 24 h, cells were treated (or not) with the different compounds and cultured for a further 24 h. Cells were harvested and lysed in 0.1 mL 0.6 M perchloric acid. Intracellular NAD^+ levels were determined with a cycling enzymatic assay, as previously reported.
In order to confirm that the above-mentioned anti-proliferative effect of the new NAMPT inhibitors were associated with NAD^+ depletion, we evaluated the intracellular NAD^+ concentration (iNAD^+) in MiaPaCa-2 cells for all the compounds (at a fixed […] concentration). After 24 h, only the iminosugar-based inhibitors 22 (77%) and 29 (79%), as well as the non-carbohydrate analogue 42 (61%), led to significant depletion; the other compounds exerted an effect in the 0–10% range.

[4] = NI (footnote 3) = No inhibition at concentration < 400 μM, SD < 20%

Compound	IC50 (MiaPaCa-2 cells [1]; NI (footnote 2) = No inhibition at concentration < 100 μM) [µM]	iNAD+ Depletion (%) (MiaPaCa-2 cells [2])	IC50 (recombinant human NAMPT) [µM]	IC50 (MiaPaCa-2 cells [1]; [4]) [µM]	intracellular NAD+ depletion (MiaPaCa-2 cells [3]) [%]
CC(C)(C)c1ccc(S(=O)(=O)N2CCC(CCCC(=O)Nc3ccc([C@@H]4N[C@H](CO)[C@@H](O)[C@H]4O)cc3)CC2)cc1 [Compound 21]	> 400	0	> 1000		
O=C(CCCC1CCN(C(=O)c2ccccc2)CC1)Nc1ccc([C@@H]2N[C@H](CO)[C@@H](O)[C@H]2O)cc1 [Compound 22]		77	99.5	108	77
O=C(CCCCCNC(=O)c1ccccc1)Nc1ccc([C@@H]2N[C@H](CO)[C@@H](O)[C@H]2O)cc1 [Compound 23]		5	363	> 400	
CC(C)(C)c1ccc(S(=O)(=O)NCc2ccc(C(=O)Nc3ccc([C@@H]4N[C@H](CO)[C@@H](O)[C@H]4O)cc3)cc2)cc1 [Compound 24]		9	549	> 400	
O=C(NCc1ccc(C(=O)Nc2ccc([C@@H]3N[C@H](CO)[C@@H](O)[C@H]3O)cc2)cc1)c1ccccc1 [Compound 25]		0	> 1000	> 400	
COC[C@H]1N[C@@H](c2ccc(NC(=O)CCCC3CCN(S(=O)(=O)c4ccc(C(C)(C)C)cc4)CC3)cc2)[C@H](OC)[C@@H]1OC [Compound 26]		10	139	37	
COC[C@H]1N[C@@H](c2ccc(NC(=O)CCCC3CCN(C(=O)c4ccccc4)CC3)cc2)[C@H](OC)[C@@H]1OC [Compound 27]		0	> 1000	539	
COC[C@H]1N[C@@H](c2ccc(NC(=O)CCCCCNC(=O)c3ccccc3)cc2)[C@H](OC)[C@@H]1OC [Compound 28]		3	603	> 400	
COC[C@H]1N[C@@H](c2ccc(NC(=O)c3ccc(CNS(=O)(=O)c4ccc(C(C)(C)C)cc4)cc3)cc2)[C@H](OC)[C@@H]1OC [Compound 29]		79	63	32	79
COC[C@H]1N[C@@H](c2ccc(NC(=O)c3ccc(CNC(=O)c4ccccc4)cc3)cc2)[C@H](OC)[C@@H]1OC [Compound 30]		0	> 1000	920	
CC(C)(C)c1ccc(S(=O)(=O)N2CCC(CCCC(=O)Nc3ccccc3)CC2)cc1 [Compound 34]		6	357	46.6	
O=C(CCCC1CCN(C(=O)c2ccccc2)CC1)Nc1ccccc1 [Compound 35]		4	> 1000	91.4	
O=C(CCCCCNC(=O)c1ccccc1)Nc1ccccc1 [Compound 38]		0	113	340	
CC(C)(C)c1ccc(S(=O)(=O)NCc2ccc(C(=O)Nc3ccccc3)cc2)cc1 [Compound 42]		61	43	> 400	61
O=C(NCc1ccc(C(=O)Nc2ccccc2)cc1)c1ccccc1 [Compound 43]		1	283	698	
O=C(/C=C/c1cccnc1)NCCCCC1CCN(C(=O)c2ccccc2)CC1 [FK866, reference compound]		90		0.0024	

Reference: publication PMC10222582, “Iminosugar-Based Nicotinamide Phosphoribosyltransferase (NAMPT) Inhibitors as Potential Anti-Pancreatic Cancer Agents” (Pharmaceutics, 2023)
